A short description of data set [1]: log P by HPLC on reversed phase columns (EEC directive 79/831 Annex V.A8). Particulars: for chromatographic logP: reversed phase HPLC columns. In kind it is physicochemical. Here is the method:
Measurement of log P values was performed according EEC directive 79/831 Annex V.A8 by HPLC (High Performance Liquid Chromatography) on reversed phase columns with the following methods:
^[b] measurement of LC-MS was done at pH 2.7 with 0.1% formic acid in water and with acetonitrile (contains 0.1% formic acid) as eluent with a linear gradient from 10% acetonitrle to 95% acetonitrile.

Another data set relates to Sphaerotheca fuliginea. The data set is described as follows: Sphaerotheca test (cucumber) / preventive. In kind it is in vivo. Particulars: 500 ppm of active ingredient, evaluated 7 days after inoculation. Here is the method: Sphaerotheca Test (Cucumber)/Preventive [table] To produce a suitable preparation of active compound, 1 part by weight of active compound is mixed with the stated amounts of solvent and emulsifier, and the concentrate is diluted with water to the desired concentration. To test for preventive activity, young plants are sprayed with the preparation of active compound at the stated rate of application. One day after this treatment, the plants are inoculated with an aqueous spore suspension of Sphaerotheca fuliginea. Then the plants are placed in a greenhouse at approximately 23° C. and a relative atmospheric humidity of approximately 70%.

A further data set relates to Alternaria solani. The experiment in a line: Alternaria test (tomato) / preventive. In kind it is in vivo. Conditions: 500 ppm of active ingredient, evaluated 7 days after inoculation. Here is the method:
Alternaria Test (Tomato)/Preventive [table] To produce a suitable preparation of active compound, 1 part by weight of active compound is mixed with the stated amounts of solvent and emulsifier, and the concentrate is diluted with water to the desired concentration. To test for preventive activity, young plants are sprayed with the preparation of active compound at the stated rate of application. One day after this treatment, the plants are inoculated with an aqueous spore suspension of Alternaria solani.

A further data set relates to Pyrenophora teres. The data set is described as follows: Pyrenophora test (barley) / preventive. In kind it is in vivo. Particulars: 500 ppm of active ingredient, evaluated 7-9 days after inoculation. Here is the method: Pyrenophora Test (Barley)/Preventive [table] To produce a suitable preparation of active compound, 1 part by weight of active compound is mixed with the stated amounts of solvent and emulsifier, and the concentrate is diluted with water to the desired concentration. To test for preventive activity, young plants are sprayed with the preparation of active compound at the stated rate of application. One day after this treatment, the plants are inoculated with an aqueous spore suspension of Pyrenophora teres.

In the next data set the test system is Podosphaera leucotricha. The experiment in a line: Podosphaera test (apples) / preventive. Conditions: 100 ppm of active ingredient, evaluated 10 days after inoculation. In kind it is in vivo. As for the experimental part: Podosphaera Test (Apples)/Preventive [table] To produce a suitable preparation of active compound, 1 part by weight of active compound is mixed with the stated amounts of solvent and emulsifier, and the concentrate is diluted with water to the desired concentration. To test for preventive activity, young plants are sprayed with the preparation of active compound at the stated rate of application. After the spray coating has dried on, the plants are inoculated with an aqueous spore suspension of the causal agent of apple mildew (Podosphaera leucotricha). The plants are then placed in a greenhouse at approximately 23° C. and a relative atmospheric humidity of approximately 70%.

A further data set has as its system Venturia inaequalis. The experiment in a line: Venturia test (apples) / preventive. In kind it is in vivo. Conditions: 100 ppm of active ingredient, evaluated 10 days after inoculation. As for the experimental part:
Venturia Test (Apples)/Preventive [table] To produce a suitable preparation of active compound, 1 part by weight of active compound is mixed with the stated amounts of solvent and emulsifier, and the concentrate is diluted with water to the desired concentration. To test for preventive activity, young plants are sprayed with the preparation of active compound at the stated rate of application.

For data set [2], the system named is Blumeria graminis f. sp. hordei. The experiment in a line: Blumeria test (barley) / preventive. In kind it is in vivo. Conditions: 500 ppm of active ingredient, evaluated 7 days after inoculation. As for the experimental part: Blumeria Test (Barley)/Preventive [table] To produce a suitable preparation of active compound, 1 part by weight of active compound or active compound combination is mixed with the stated amounts of solvent and emulsifier, and the concentrate is diluted with water to the desired concentration. To test for preventive activity, young plants are sprayed with the preparation of active compound or active compound combination at the stated rate of application. After the spray coating has been dried, the plants are dusted with spores of Blumeria graminis f. sp. hordei.

A further data set has as its system Septoria tritici. The data set is described as follows: Septoria tritici-test (wheat) / preventive. Conditions: 500 ppm of active ingredient, evaluated 21 days after inoculation. In kind it is in vivo. As for the experimental part:
Septoria tritici-Test (Wheat)/Preventive [table] To produce a suitable preparation of active compound, 1 part by weight of active compound or active compound combination is mixed with the stated amounts of solvent and emulsifier, and the concentrate is diluted with water to the desired concentration. To test for preventive activity, young plants are sprayed with the preparation of active compound or active compound combination at the stated rate of application. After the spray coating has been dried, the plants are sprayed with a spore suspension of Septoria tritici.

The subject of a further data set is Puccinia triticina. The data set is described as follows: Puccinia triticina-test (wheat) / preventive. Conditions: 500 ppm of active ingredient, evaluated 8 days after inoculation. In kind it is in vivo. Here is the method: Puccinia triticina-Test (Wheat)/Preventive [table] To produce a suitable preparation of active compound, 1 part by weight of active compound or active compound combination is mixed with the stated amounts of solvent and emulsifier, and the concentrate is diluted with water to the desired concentration. To test for preventive activity, young plants are sprayed with the preparation of active compound or active compound combination at the stated rate of application. After the spray coating has been dried, the plants are sprayed with a spore suspension of Puccinia triticina.

Data set [3] relates to Fusarium nivale (var. majus). The data set is described as follows: Fusarium nivale (var. majus)-test (wheat) / preventive. Type of data set: in vivo. Conditions: 500 ppm of active ingredient, evaluated 5 days after inoculation. As for the experimental part:
Fusarium nivale (var. majus)-Test (Wheat)/Preventive [table] To produce a suitable preparation of active compound, 1 part by weight of active compound or active compound combination is mixed with the stated amounts of solvent and emulsifier, and the concentrate is diluted with water to the desired concentration. To test for preventive activity, young plants are sprayed with the preparation of active compound or active compound combination at the stated rate of application. After the spray coating has been dried, the plants are slightly injured by using a sandblast and afterwards they are sprayed with a conidia suspension of Fusarium nivale (var. majus).

Each structure is given as a SMILES string. Like-named read-outs stand apart in the source and are kept apart here.

As for `Cn1nc(C(F)F)c(C(=O)NC2CCCCC2C2CC2C2CC2)c1F` (single isomer, unassigned) [Example 1, N-{2-[1,1′-bi(cyclopropyl)-2-yl]cyclohexyl}-3-(difluoromethyl)-5-fluoro-1-methyl-1H-pyrazole-4-carboxamide], the chromatographic logP in [1] (pH 2.7, HPLC/LC-MS at pH 2.7, 0.1% formic acid in water / acetonitrile gradient, read-out: Log P[b]) was determined as 4.02; in [1] (pH 2.7, acid, product isolated with a purity of 87% LC-MS, read-out: log P (acid)), 4.02. In addition, the Eff. % (with Sphaerotheca fuliginea; with Alternaria solani; with Pyrenophora teres; with Podosphaera leucotricha; with Venturia inaequalis; in [2]) was 100% throughout. For the same compound, the Eff. % with Septoria tritici is 90%; with Puccinia triticina it was 100%; in data set [3], 100%.

For `Cn1nc(C(F)F)c(C(=O)NC2CCCCC2C2CC2C2CC2)c1F` (single isomer, unassigned) [Example 2, N-{2-[1,1′-bi(cyclopropyl)-2-yl]cyclohexyl}-3-(difluoromethyl)-5-fluoro-1-methyl-1H-pyrazole-4-carboxamide], in [1] (HPLC/LC-MS at pH 2.7, 0.1% formic acid in water / acetonitrile gradient), the “Log P[b]” value was found to be 3.84. For the same compound, the Eff. % (in the data set on Sphaerotheca fuliginea; with Alternaria solani; with Pyrenophora teres; with Podosphaera leucotricha; in the data set with Venturia inaequalis; in data set [2]) was 100% in each case. The Eff. % is reported as 90% in the data set on Septoria tritici, 100% in the data set with Puccinia triticina and 100% in [3].

(Values after patent US8653114B2, “O-cyclopropylcyclohexyl-carboxanilides and their use as fungicides” (priority 2010, dated 2014).)
